Results on 11 molecules are retold here after patent USRE50528E1, “Compounds and compositions for modulating EGFR mutant kinase activities” (Yuhan Corporation, priority 2014, dated 2025).

Read-outs that look alike come from different tables or passages of the source. Bounds are passed on as bounds.

The target in one test is T1, EGFR mutant T790M (Homo sapiens, UniProt P00533, T790M).
T1 construct: truncated human JAK3, EGFR mutants such as del E746-A750; purchased Carna Biosciences
Description: Kinase inhibition assay, EGFR mutant T790M.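 Also: truncated human EGFR mutant enzyme preincubated two hours with compound, then ATP plus ULight-PolyGT peptide for one hour, Europium-labeled antibody LANCE detection, IC50.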 The conditions noted are these: biochemical potency.

A further test has as its target T2, EGFR mutant L858R (Homo sapiens, UniProt P00533, L858R).
T2 construct: truncated human JAK3, EGFR mutants such as del E746-A750; purchased Carna Biosciences
Description: Kinase inhibition assay, EGFR L858R.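 Also: truncated human EGFR L858R kinase with compound preincubation, ULight-PolyGT peptide phosphorylation read by Europium-antibody Lance detection, IC50.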 The class given is biochemical. The note with it: read-out: EGFR mutants L858R.

In the next test the target is T3, EGFR mutant Del19/T790M (Homo sapiens, UniProt P00533, DEL746-750/T790M).
T3 construct: truncated human JAK3, EGFR mutants such as del E746-A750; purchased Carna Biosciences
Kind of test: Kinase inhibition assay, EGFR del E746-A750/T790M. The conditions noted are these: read-out: EGFR mutants Del19/T790M. The class given is biochemical.

The next test deals with T4, EGFR mutant L858R/T790M (Homo sapiens, UniProt P00533, L858R/T790M).
T4 construct: truncated human JAK3, EGFR mutants such as del E746-A750; purchased Carna Biosciences
Description: Kinase inhibition assay, EGFR L858R/T790M.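 Also: truncated human enzyme preincubated two hours with compound, then one hour with one millimolar ATP and ULight-PolyGT peptide, Europium-labeled antibody detection, IC50.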 The note with it: read-out: EGFR mutants L858R/T790M. The test is classed as biochemical.

Test [1] concerns the target T5, EGFR mutant Del19 (E746-A750) (Homo sapiens, UniProt P00533, DEL746-750).
T5 construct: truncated human JAK3, EGFR mutants such as del E746-A750; purchased Carna Biosciences
Kind of test: Kinase inhibition assay, EGFR del E746-A750.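 Also: truncated human EGFR mutant kinase, two-hour preincubation with compound, then one-hour reaction with ATP and ULight-PolyGT peptide, LANCE Europium-antibody phosphorylation readout, IC50.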 The test is classed as biochemical. The note with it: read-out: EGFR mutants Del19 (E746-A750).

In the next test the target is T6, SYK (Homo sapiens, UniProt P43405).
T6 construct: Purified human, full-length SYK, KDR; purchased Carna Biosciences
Description: Kinase inhibition assay, SYK.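 Also: purified full-length human SYK pre-incubated 30 min with compound, then ULight-TK peptide phosphorylation for 1 h, detected with Europium-labeled antibody in Lance buffer.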 The test is classed as biochemical. The conditions noted are these: biochemical potency.

The next test deals with T7, KDR (Homo sapiens, UniProt P35968).
T7 construct: Purified human, full-length SYK, KDR; purchased Carna Biosciences
Kind of test: Kinase inhibition assay, KDR.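 Also: purified full-length human KDR, 30 min preincubation with compound, then 1 h reaction with ATP and Ulight-Jak1 peptide substrate, phosphorylation read by Lance Europium antibody detection.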 The class given is biochemical. The note with it: biochemical potency.

Another test deals with T8, JAK3 (Homo sapiens, UniProt P52333).
T8 construct: EGFR and JAK3 (JH1domain-catalytic) kinases, and mutant forms thereof; purchased Carna Biosciences
Description: Kinase inhibition assay, JAK3.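 Also: IC50 against purified truncated human JAK3 preincubated with compound, then reacted with ATP and ULight-Jak1 peptide, phosphorylation read by Europium-labeled antibody LANCE detection.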 The conditions noted are these: biochemical potency.

Test [2] deals with PC9 (EGFR del E746-A750 mutant). Description: Cell viability assay, PC9.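 As to all read-outs here: NSCLC PC9 cells, whose viability relies on EGFR del E746-A750, exposed to serially diluted compound for 72 h at 37 °C, ATPLite read-out, IC50, H2073 as EGFR wildtype line.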 The class given is cell-based. The note with it: for Selectivity over wildtype, Wildtype vs mutant H2073/PC9 (fold): cellular potency ratio; for IC50: cellular potency, 72-hour incubation, ATPLite, read-out: EGFR Mutants PC9. Background: ATP-based viability assays read luminescence as a measure of living cells.

For test [3], the system named is H1975 (EGFR L858R/T790M mutant). Description: Cell viability assay, H1975.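 As to all read-outs here: NSCLC cells whose survival relies on EGFR L858R/T790M, exposed 72 h to serially diluted compound, ATP-based viability readout, with the H2073 line (wildtype EGFR dependent) as wildtype comparator.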 The class given is cell-based. The note with it: for Selectivity over wildtype, Wildtype vs mutant H2073/H1975 (fold): cellular potency ratio; for IC50: cellular potency, 72-hour incubation, ATPLite, read-out: EGFR Mutants H1975.
A further test has as its system H2073 (EGFR wildtype). Kind of test: Cell viability assay, H2073.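 Also: NSCLC cell line whose survival relies on wildtype EGFR, treated with serially diluted compound, cytotoxic effect judged from remaining cell viability.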 The test is classed as cell-based. The note with it: cellular potency, 72-hour incubation, ATPLite.

T7 sequence (P35968 20-1356): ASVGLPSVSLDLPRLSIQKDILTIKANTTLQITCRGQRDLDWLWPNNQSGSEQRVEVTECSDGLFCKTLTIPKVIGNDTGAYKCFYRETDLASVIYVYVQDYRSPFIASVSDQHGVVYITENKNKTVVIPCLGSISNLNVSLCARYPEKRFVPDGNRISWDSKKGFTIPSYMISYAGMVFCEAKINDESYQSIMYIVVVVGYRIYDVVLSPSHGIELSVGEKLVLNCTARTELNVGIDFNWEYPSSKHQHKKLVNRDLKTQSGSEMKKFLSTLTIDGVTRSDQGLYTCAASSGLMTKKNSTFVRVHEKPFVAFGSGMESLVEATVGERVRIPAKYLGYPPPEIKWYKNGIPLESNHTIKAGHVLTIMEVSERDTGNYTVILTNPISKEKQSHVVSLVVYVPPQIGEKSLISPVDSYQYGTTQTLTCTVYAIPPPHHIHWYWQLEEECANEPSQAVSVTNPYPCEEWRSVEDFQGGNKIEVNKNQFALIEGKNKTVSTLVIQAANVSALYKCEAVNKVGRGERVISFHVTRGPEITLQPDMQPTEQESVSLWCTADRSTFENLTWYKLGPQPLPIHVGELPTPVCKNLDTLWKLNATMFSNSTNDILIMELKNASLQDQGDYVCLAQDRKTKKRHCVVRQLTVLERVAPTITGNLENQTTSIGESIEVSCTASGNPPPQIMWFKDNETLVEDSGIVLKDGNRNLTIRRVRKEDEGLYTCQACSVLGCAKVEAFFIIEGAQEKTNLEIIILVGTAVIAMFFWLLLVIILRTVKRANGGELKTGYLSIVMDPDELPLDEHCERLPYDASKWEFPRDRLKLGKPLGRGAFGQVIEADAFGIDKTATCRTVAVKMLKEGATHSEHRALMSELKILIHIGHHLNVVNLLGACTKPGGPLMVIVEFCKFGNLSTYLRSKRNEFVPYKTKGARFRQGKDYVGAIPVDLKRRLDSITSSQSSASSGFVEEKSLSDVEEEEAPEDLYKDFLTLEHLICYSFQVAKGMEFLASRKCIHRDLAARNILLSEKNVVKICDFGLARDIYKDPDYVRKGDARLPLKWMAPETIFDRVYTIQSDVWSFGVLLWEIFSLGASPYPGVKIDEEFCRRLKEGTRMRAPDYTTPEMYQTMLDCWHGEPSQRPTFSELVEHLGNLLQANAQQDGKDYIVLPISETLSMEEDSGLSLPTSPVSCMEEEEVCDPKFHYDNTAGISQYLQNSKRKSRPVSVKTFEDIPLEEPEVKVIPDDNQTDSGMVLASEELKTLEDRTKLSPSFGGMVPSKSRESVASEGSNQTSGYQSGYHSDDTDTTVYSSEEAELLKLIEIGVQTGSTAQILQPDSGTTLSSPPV
T8 sequence (P52333 822-1111 limits assumed): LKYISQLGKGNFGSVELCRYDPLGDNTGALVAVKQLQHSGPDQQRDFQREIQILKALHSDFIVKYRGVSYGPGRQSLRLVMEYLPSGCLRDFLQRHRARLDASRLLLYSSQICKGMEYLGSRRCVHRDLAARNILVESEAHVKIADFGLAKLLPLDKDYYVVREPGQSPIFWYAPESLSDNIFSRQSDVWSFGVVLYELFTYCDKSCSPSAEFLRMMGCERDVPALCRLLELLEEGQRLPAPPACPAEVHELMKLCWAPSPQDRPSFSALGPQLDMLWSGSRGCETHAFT

Turning to `C=CC(=O)Nc1cc(Nc2nccc(-n3cc(CN4CCC4)cn3)n2)c(OC)cc1N1CCOCC1` [Compound 34, N-(5-(4-(4-(azetidin-1-ylmethyl)-1H-pyrazol-1-yl)pyrimidin-2-ylamino)-4-methoxy-2-morpholinophenyl)acrylamide], the IC50 is < 20 nM against EGFR mutant T790M; 20 to 200 nM at EGFR mutant L858R; < 20 nM at EGFR mutant Del19/T790M; < 20 nM on EGFR mutant L858R/T790M; < 20 nM in test [1]; 201 to 1000 nM against SYK. Besides, the IC50 against KDR is > 1000 nM; at JAK3 it was 20 to 200 nM.

On to `C=CC(=O)Nc1cc(Nc2ncc(Cl)c(-n3cc(CN4CC(O)C4)c(C)n3)n2)c(OC)cc1N1CCOCC1` [Compound 49, N-(5-(5-chloro-4-(4-((3-hydroxyazetidin-1-yl)methyl)-3-methyl-1H-pyrazol-1-yl)pyrimidin-2-ylamino)-4-methoxy-2-morpholinophenyl)acrylamide], for which the IC50 on EGFR mutant T790M is < 20 nM; on EGFR mutant L858R, < 20 nM; at EGFR mutant Del19/T790M it was < 20 nM; on EGFR mutant L858R/T790M, < 20 nM; in test [1], < 20 nM; at SYK, 201 to 1000 nM. The IC50 against KDR was > 1000 nM; at JAK3, < 20 nM.

As for “4-(3-((dimethylamino)methyl)-4-methyl-1H-pyrrol-1-yl)-N-(3,5-dimethylphenyl)pyrimidin-2-amine [Compound 146, reference compound]”, the IC50 is > 1000 nM against EGFR mutant T790M; > 1000 nM on EGFR mutant L858R (biochemical potency, 1 mM ATP); 201 to 1000 nM on EGFR mutant Del19/T790M (biochemical potency, 1 mM ATP); 201 to 1000 nM on EGFR mutant L858R/T790M (biochemical potency, 1 mM ATP); > 1000 nM in test [2]; > 1000 nM in [1] (biochemical potency, 1 mM ATP). For the same molecule, the IC50 was > 1000 nM in test [3], 20 to 200 nM on SYK and > 1000 nM in the test with H2073 (EGFR wildtype). In addition, the “Selectivity over wildtype, Wildtype vs mutant H2073/PC9 (fold)” value (“Selectivity … vs mutant H2073/PC9 (fold)” below) in test [2] is <20 fold. Also, the “Selectivity over wildtype, Wildtype vs mutant H2073/H1975 (fold)” value (from here on “Selectivity … vs mutant H2073/H1975 (fold)”) in test [3] was <20 fold.

`Cc1cc(Nc2nccc(-n3cc(CN4CC(O)C4)c(C)n3)n2)cc(C)c1OCCO` [Compound 149, 1-((1-(2-(4-(2-hydroxyethoxy)-3,5-dimethylphenylamino)pyrimidin-4-yl)-3-methyl-1H-pyrazol-4-yl)methyl)azetidin-3-ol, reference compound]: the IC50 on EGFR mutant T790M was > 1000 nM; on EGFR mutant L858R it was > 1000 nM; on EGFR mutant Del19/T790M it was > 1000 nM; on EGFR mutant L858R/T790M, 201 to 1000 nM; in [2], > 1000 nM; in test [1] it was > 1000 nM. The IC50 in test [3] (Homo sapiens, NCI-H1975) was > 1000 nM; against SYK, > 1000 nM; with H2073 (EGFR wildtype) (NCI-H2073), > 1000 nM. The “Selectivity … vs mutant H2073/PC9 (fold)” value in test [2] is reported as <20 fold. In addition, the “Selectivity … vs mutant H2073/H1975 (fold)” value in [3] is listed as <20 fold.

In the case of `C=CC(=O)Nc1cc(Nc2nccc(-n3cc(CN(C)CC)c(-c4ccccc4)n3)n2)c(OC)cc1N1CCOCC1` [Compound 92, N-(5-(4-(4-((ethyl(methyl)amino)methyl)-3-phenyl-1H-pyrazol-1-yl)pyrimidin-2-ylamino)-4-methoxy-2-morpholinophenyl)acrylamide], the IC50 (against EGFR mutant T790M; on EGFR mutant L858R; on EGFR mutant Del19/T790M; at EGFR mutant L858R/T790M; in test [2]; in test [1]) was < 20 nM throughout. Also, the IC50 in test [3] (Homo sapiens, NCI-H1975) is < 20 nM; at SYK, > 1000 nM; with H2073 (EGFR wildtype) (NCI-H2073) it was > 1000 nM. In [2], the “Selectivity … vs mutant H2073/PC9 (fold)” value is listed as >200 fold. The “Selectivity … vs mutant H2073/H1975 (fold)” value in test [3] was >200 fold.

Consider `C=CC(=O)Nc1cc(Nc2nccc(-n3cc(CN(C)C)c(C(C)(C)C)n3)n2)c(OC)cc1N1CCOCC1` [Compound 86, N-(5-(4-(3-tert-butyl-4-((dimethylamino)methyl)-1H-pyrazol-1-yl)pyrimidin-2-ylamino)-4-methoxy-2-morpholinophenyl)acrylamide], for which the IC50 at EGFR mutant T790M was 20 to 200 nM; on EGFR mutant L858R, < 20 nM; on EGFR mutant Del19/T790M, < 20 nM; on EGFR mutant L858R/T790M, < 20 nM; in test [2], < 20 nM; in [1] it was < 20 nM. In addition, the IC50 in test [3] (Homo sapiens, NCI-H1975) is < 20 nM; against SYK, > 1000 nM; in the test with H2073 (EGFR wildtype) (NCI-H2073) it was 201 to 1000 nM. Besides, the “Selectivity … vs mutant H2073/PC9 (fold)” value in test [2] was 20-200 fold. Besides, in test [3], the “Selectivity … vs mutant H2073/H1975 (fold)” value is recorded as 20-200 fold.

For `CCC(=O)Nc1cc(Nc2nccc(-n3cc(CN4CCC4)c(-c4ccccc4)n3)n2)c(OC)cc1N1CCOCC1` [Compound 158, N-(5-(4-(4-(azetidin-1-ylmethyl)-3-phenyl-1H-pyrazol-1-yl)pyrimidin-2-ylamino)-4-methoxy-2-morpholinophenyl)propionamide, reference compound], the IC50 against EGFR mutant T790M was > 1000 nM; on EGFR mutant L858R, > 1000 nM; on EGFR mutant Del19/T790M, > 1000 nM; on EGFR mutant L858R/T790M, > 1000 nM; in test [2], 20 to 200 nM; in test [1] it was > 1000 nM. In addition, the IC50 is 201 to 1000 nM in [3] (Homo sapiens, NCI-H1975); > 1000 nM against SYK; > 1000 nM with H2073 (EGFR wildtype) (NCI-H2073). Besides, in test [2], the “Selectivity … vs mutant H2073/PC9 (fold)” value was <20 fold. For the same molecule, the “Selectivity … vs mutant H2073/H1975 (fold)” value in [3] was <20 fold.

On to `C=CC(=O)Nc1cc(Nc2nccc(-n3cc(CN4CCC4)c(-c4ccc(C)cc4)n3)n2)c(OC)cc1N1CCOCC1` [Compound 82, N-(5-(4-(4-(azetidin-1-ylmethyl)-3-p-tolyl-1H-pyrazol-1-yl)pyrimidin-2-ylamino)-4-methoxy-2-morpholinophenyl)acrylamide], for which the IC50 at EGFR mutant L858R is 20 to 200 nM; on EGFR mutant Del19/T790M, < 20 nM; at EGFR mutant L858R/T790M, < 20 nM; in test [2] it was 20 to 200 nM; in test [1], < 20 nM; in test [3] (Homo sapiens, NCI-H1975), 20 to 200 nM. For the same molecule, the IC50 on SYK, against KDR and in the test with H2073 (EGFR wildtype) (NCI-H2073) was > 1000 nM each time. In addition, the “Selectivity … vs mutant H2073/PC9 (fold)” value in test [2] is 101-200 fold. In [3], the “Selectivity … vs mutant H2073/H1975 (fold)” value is 101-200 fold.

For the molecule `C=CC(=O)Nc1cc(Nc2nccc(-n3cc(CN(C)C)c(C(C)C)n3)n2)c(OC)cc1N1CCOCC1` [Compound 93, N-(5-(4-(4-((dimethylamino)methyl)-3-isopropyl-1H-pyrazol-1-yl)pyrimidin-2-ylamino)-4-methoxy-2-morpholinophenyl)acrylamide], the IC50 (against EGFR mutant T790M; on EGFR mutant L858R; at EGFR mutant Del19/T790M; on EGFR mutant L858R/T790M; in test [2]; in test [1]) was < 20 nM throughout. In addition, the IC50 is < 20 nM in test [3] (Homo sapiens, NCI-H1975); > 1000 nM on SYK; 201 to 1000 nM in the test on H2073 (EGFR wildtype) (NCI-H2073). Also, in [2], the “Selectivity … vs mutant H2073/PC9 (fold)” value is given as 20-200 fold. Besides, the “Selectivity … vs mutant H2073/H1975 (fold)” value in [3] is on record as 20-200 fold.

`C=CC(=O)Nc1cc(Nc2nccc(-n3cc(CN(C)C)c(C4CC4)n3)n2)c(OC)cc1N(C)CCOC` [Compound 106, N-(5-(4-(3-cyclopropyl-4-((dimethylamino)methyl)-1H-pyrazol-1-yl)pyrimidin-2-ylamino)-4-methoxy-2-((2-methoxyethyl)(methyl)amino)phenyl)acrylamide]: the IC50 against EGFR mutant T790M is < 20 nM; on EGFR mutant L858R, < 20 nM; at EGFR mutant Del19/T790M it was < 20 nM; at EGFR mutant L858R/T790M, < 20 nM; in test [2], 20 to 200 nM; in test [1] it was < 20 nM. The IC50 was 20 to 200 nM in test [3] (Homo sapiens, NCI-H1975); 20 to 200 nM against SYK; > 1000 nM in the test on H2073 (EGFR wildtype) (NCI-H2073). Moreover, in test [2], the “Selectivity … vs mutant H2073/PC9 (fold)” value is listed as 101-200 fold. Besides, the “Selectivity … vs mutant H2073/H1975 (fold)” value in test [3] is on record as 101-200 fold.

With `C=CC(=O)Nc1cc(Nc2nccc(-n3cc(CN(C)C)c(-c4ccccc4)n3)n2)c(OC)cc1N1CCC1` [Compound 84, N-(2-(azetidin-1-yl)-5-(4-(4-((dimethylamino)methyl)-3-phenyl-1H-pyrazol-1-yl)pyrimidin-2-ylamino)-4-methoxyphenyl)acrylamide], the IC50 (against EGFR mutant T790M; on EGFR mutant L858R; on EGFR mutant Del19/T790M; on EGFR mutant L858R/T790M; in test [2]; in [1]) was < 20 nM each time. The IC50 was < 20 nM in test [3] (Homo sapiens, NCI-H1975); > 1000 nM on SYK; 20 to 200 nM with H2073 (EGFR wildtype) (NCI-H2073). In addition, in test [2], the “Selectivity … vs mutant H2073/PC9 (fold)” value is <20 fold. Besides, the “Selectivity … vs mutant H2073/H1975 (fold)” value in test [3] is <20 fold.
